For this assay, the target named is Replicase polyprotein 1ab (Severe acute respiratory syndrome coronavirus 2) (UniProt P0DTD1).

For 30 compounds, inhibition results are on record in ChEMBL document CHEMBL5442379, “ASAP - SARS-CoV-2 nsp3 macrodomain single point” (2024).

Structures are written as SMILES.

The term inhibition denotes the relative decrease from the control value, in per cent.

Description: Functional biochemical assay to identify treatments for viral infectious disease that targets SARS-COV-2 nsp3 macrodomain, whereby the mechanism of action displaces an ADP-Ribose modified peptide from the binding site. Utilizing a time-resolved fluorescence method to measure binding by reading the emitted fluorescence intensity in two wavelengths.

As for `OC[C@@H]1CN(c2ncnc3nc[nH]c23)CCC1(F)F`, the inhibition (Concentration 50.0 uM, Number of replicates 2.0, Standard deviation 0.855 %) came to 1.75%.
Regarding `c1ccc(-c2nc(CNc3cccnc3)cs2)nc1`, the inhibition (Concentration 50.0 uM, Number of replicates 2.0, Standard deviation 0.432 %) is -9.87%.
`Cc1ncc(NCc2csc(-c3ccccn3)n2)cn1`: the inhibition by setting is: (Concentration 49.75 uM, Number of replicates 2.0, Standard deviation 3.788 %) -5.23%; (Concentration 99.5 uM, Number of replicates 2.0, Standard deviation 2.632 %) -4.49%.
For the compound `Cn1cc(NC(=O)c2ccc(NC(=O)Nc3ccccc3)cc2)c(C#N)n1`, the inhibition was 2.49% (Concentration 49.75 uM, Number of replicates 2.0, Standard deviation 0.991 %) and -0.539% (Concentration 99.5 uM, Number of replicates 2.0, Standard deviation 1.521 %).
Turning to `O=C1C[C@H](CNC(=O)c2ccc(NC(=O)Nc3ccccc3)cc2)CCN1`, the inhibition runs as follows: (Concentration 49.75 uM, Number of replicates 2.0, Standard deviation 1.043 %) 1.22%; (Concentration 99.5 uM, Number of replicates 2.0, Standard deviation 0.12 %) 4.01%.
With `NC(=O)c1ccccc1NC(=O)c1ncnc2[nH]ccc12`, the inhibition (Concentration 50.0 uM, Number of replicates 2.0, Standard deviation 0.083 %) is -2.59%.
Turning to `Cn1ncc2ncnc(NCc3ncccc3O)c21`, the inhibition (Concentration 50.0 uM, Number of replicates 2.0, Standard deviation 1.081 %) is -2.55%.
Turning to `O=C(c1ccncc1)N1CCC(c2ccn3ncc(C(=O)N4CCCCC4)c3c2)CC1`, the inhibition (Concentration 49.75 uM, Number of replicates 2.0, Standard deviation 1.966 %) amounted to 10.8% and the inhibition (Concentration 99.5 uM, Number of replicates 2.0, Standard deviation 0.415 %) was determined as 26.5%.
As for `O=C(CCN(Cc1cccc(Cl)c1)C(=O)[C@H]1CCOC1)N1CCNCC1`, the inhibition was 4.08% (Concentration 49.75 uM, Number of replicates 2.0, Standard deviation 12.724 %) and -3.96% (Concentration 99.5 uM, Number of replicates 2.0, Standard deviation 2.436 %).
With `FC(F)(F)CO[C@@H]1CCCN(c2ncnc3[nH]ccc23)C1`, the inhibition (Concentration 50.0 uM, Number of replicates 2.0, Standard deviation 28.677 %) is 22.2%.
`Cc1cc(CNC(=O)c2cnn3ccc(C4CCN(C(=O)c5ccccc5)CC4)cc23)n(C)n1`: the inhibition was -5.51% (Concentration 49.75 uM, Number of replicates 2.0, Standard deviation 3.014 %) and -8.12% (Concentration 99.5 uM, Number of replicates 2.0, Standard deviation 0.205 %).
For `CCn1cc(CNC(=O)c2ccc(NC(=O)Nc3ccccc3)cc2)cn1`, the inhibition by setting is: (Concentration 49.75 uM, Number of replicates 2.0, Standard deviation 1.767 %) -1.76%; (Concentration 99.5 uM, Number of replicates 2.0, Standard deviation 3.239 %) 3.8%.
For `Fc1ccc(OC(F)F)c(CNc2cnc3[nH]ncc3c2)c1`, the inhibition (Concentration 50.0 uM, Number of replicates 2.0, Standard deviation 3.077 %) is -6.67%.
With `Nc1ncnc2c1ncn2Cc1cccc2ncnn12`, the inhibition by setting is: (Concentration 49.75 uM, Number of replicates 2.0, Standard deviation 0.496 %) -0.553%; (Concentration 99.5 uM, Number of replicates 2.0, Standard deviation 1.809 %) -3.16%.
In the case of `O=C(OCc1ccc(Cl)nc1)c1ncnc2[nH]ccc12`, the inhibition (Concentration 50.0 uM, Number of replicates 2.0, Standard deviation 1.988 %) is 6.08%.
In the case of `O=C1CC[C@@H](CNC(=O)c2cnn3ccc(C4CCN(C(=O)c5ccccc5)CC4)cc23)N1`, the inhibition was -2.32% (Concentration 49.75 uM, Number of replicates 2.0, Standard deviation 1.276 %) and -1.47% (Concentration 99.5 uM, Number of replicates 2.0, Standard deviation 4.674 %).
As for `C#Cc1cccc(NC(=O)CN(C)c2ncnc3[nH]ccc23)c1`, the inhibition (Concentration 50.0 uM, Number of replicates 2.0, Standard deviation 4.462 %) amounted to 4.4%.
As to `Cc1ccc(O)c(CNc2ncnc3[nH]cnc23)n1`, the inhibition turned out to be 0.262% (Concentration 50.0 uM, Number of replicates 2.0, Standard deviation 1.123 %) and 6.28% (Concentration 100.0 uM, Number of replicates 2.0, Standard deviation 2.0 %).
Regarding `CC1(C)CN(C(=O)c2ccc(NC(=O)Nc3ccccc3)cc2)C[C@@]1(F)C(=O)O`, the inhibition reads like this: (Concentration 49.75 uM, Number of replicates 2.0, Standard deviation 0.273 %) -2.57%; (Concentration 99.5 uM, Number of replicates 2.0, Standard deviation 1.041 %) -5.19%.
Regarding `CN1CCC[C@@H]1CNC(=O)c1cnn2ccc(C3CCN(C(=O)c4ccccc4)CC3)cc12`, the inhibition reads like this: (Concentration 49.75 uM, Number of replicates 2.0, Standard deviation 1.011 %) -4.43%; (Concentration 99.5 uM, Number of replicates 2.0, Standard deviation 3.797 %) 1.5%.
In the case of `O=C(c1nnn[nH]1)N1CCC(c2ccn3ncc(C(=O)N4CCCCC4)c3c2)CC1`, the inhibition runs as follows: (Concentration 49.75 uM, Number of replicates 2.0, Standard deviation 0.79 %) 55.1%; (Concentration 99.5 uM, Number of replicates 2.0, Standard deviation 0.232 %) 69%.
`Cc1n[nH]c(C)c1C(=O)N1CCC(c2ccn3ncc(C(=O)N4CCCCC4)c3c2)CC1`: the inhibition (Concentration 49.75 uM, Number of replicates 2.0, Standard deviation 0.408 %) came out at 10.8% and the inhibition (Concentration 99.5 uM, Number of replicates 2.0, Standard deviation 0.015 %) turned out to be 23.3%.
On to `CC(C)Cn1cc([C@H]2N(c3ncnc4[nH]ccc34)CC23CCOCC3)cn1`, for which the inhibition runs as follows: (Concentration 49.75 uM, Number of replicates 2.0, Standard deviation 1.28 %) -0.591%; (Concentration 99.5 uM, Number of replicates 2.0, Standard deviation 6.534 %) -4.66%.
For the compound `C[C@@H]1CN(C(=O)c2ccc(NC(=O)Nc3ccccc3)cc2)CC(=O)N1`, the inhibition is, setting by setting: (Concentration 49.75 uM, Number of replicates 2.0, Standard deviation 1.912 %) -0.707%; (Concentration 99.5 uM, Number of replicates 2.0, Standard deviation 5.834 %) 0.29%.
Turning to `O=C(N[C@H](Cn1cnc2cc(F)c(F)cc21)C(=O)O)c1ncnc2[nH]ccc12`, the inhibition is -2.04% (Concentration 49.75 uM, Number of replicates 2.0, Standard deviation 5.178 %) and 8.39% (Concentration 99.5 uM, Number of replicates 2.0, Standard deviation 0.435 %).
With `Cc1n[nH]nc1C(=O)N1CCC(c2ccn3ncc(C(=O)N4CCCCC4)c3c2)CC1`, the inhibition is, setting by setting: (Concentration 49.75 uM, Number of replicates 2.0, Standard deviation 0.483 %) 29.3%; (Concentration 99.5 uM, Number of replicates 2.0, Standard deviation 0.403 %) 45.8%.
Take `N[C@@H]1CCC[C@@H](C(=O)N(CCC(=O)N2CCNCC2)Cc2cccc(Cl)c2)C1`: the inhibition was -0.755% (Concentration 49.75 uM, Number of replicates 2.0, Standard deviation 0.617 %) and -1.47% (Concentration 99.5 uM, Number of replicates 2.0, Standard deviation 0.793 %).
As for `COCc1cc(CC(=O)Nc2ncnc3[nH]cnc23)no1`, the inhibition (Concentration 50.0 uM, Number of replicates 2.0, Standard deviation 0.215 %) was found to be 2.97%.
Turning to `O=C(CCN(Cc1cccc(Cl)c1)C(=O)c1ccc(F)cn1)N1CCNCC1`, the inhibition (Concentration 49.75 uM, Number of replicates 2.0, Standard deviation 0.987 %) came to 6.76% and the inhibition (Concentration 99.5 uM, Number of replicates 2.0, Standard deviation 1.391 %) was found to be 6.74%.
For the compound `Cc1noc(CCCNC(=O)c2ncnc3[nH]ccc23)n1`, for the setting “Concentration 50.0 uM, Number of replicates 2.0, Standard deviation 1.028 %”, the inhibition is -5.13%.
